Source: patent US20240245657A1, “THIADIAZOLIDINONES FOR THEIR USE IN THE TREATMENT OF LIMB-GIRDLE MUSCULAR DYSTROPHY” (CONSEJO SUPERIOR DE INVESTIGACIONES CIENTÍFICAS, priority 2021, published 2024)

Key:
p70S6K = assay: Western blot of p70S6K and its phosphorylated forms in human primary myotubes (controls and LGMDR1 patients); format: cell-based; settings: 48 h; for P-p70S6K (T389), protein expression value relative to the same sample without treatment / P-p70S6K (T421-S424), protein expression value relative to the same sample without treatment: tideglusib 1.2 μM
Procedure: (§1) To obtain primary myoblasts, muscle biopsies were processed and cultured in monolayer according to the method described by Askanas (Neurology, 1975, 25, 58-67). To isolate the pure population of myoblasts and CD56-negative cells (CD56-), the protocol described previously (Jaka et al., Expert Reviews in Molecular Medicine, 2017, 19, e2) was used, using immunomagnetic separation based on the early presence of the surface marker CD56 (Miltenyi Biotec, 130-050-401).
(§2) Myoblasts were cultured in proliferation medium (DMEM, M-199, Insulin, Glutamine and penicillin-streptomycin) with 10% FBS and growth factors at 37° C. in 5% CO2 air incubator. When myoblasts reached confluence, the FBS concentration was reduced to 2% and growth factors were removed from the medium, promoting fusion and production of myotubes.
(§3) Tideglusib was provided by Dr. Ana Martínez (from The Center for Biological Research, CSIC). It was administered at 1.2 μM, whereas LiCI (Sigma-Aldrich, L7026) was used for comparative purposes at a final concentration of 10 mM. Tideglusib and LiCI were administered at the above referred concentrations to myotubes at eight days of differentiation, and tideglusib also to skin fibroblasts and to CD56-cells. Negative controls, in the case of tideglusib, were performed with DMSO (Fisher Scientific, BP-231). At 48 hours after drug administration, RNA and proteins were extracted.
(§4) Protein collection from muscle samples and cell cultures, as well as Western blot procedure, were performed as previously described (Jaka et al., Expert Reviews in Molecular Medicine, 2017, 19, e2).

RPS6 = assay: Western blot of P-RPS6 (Ser235/Ser236) in human primary myotubes (controls and LGMDR1 patients); format: cell-based; settings: 48 h; for P-RPS6 (S235-S236), protein expression value relative to the same sample without treatment: tideglusib 1.2 μM; for P-RPS6 (S235-S236), Western blot densitometry: LiCl 10 mM
Procedure: as §1, §2, §3, §4

mTOR = assay: Western blot of mTOR and P-mTOR in human primary myotubes; format: cell-based; settings: LGMDR1 patient's myotubes, 1.2 μM, 48 h
Procedure: (§5) To obtain primary myoblasts, muscle biopsies were processed and cultured in monolayer according to the method described by […] (Neurology, 1975, 25, 58-67). To isolate the pure population of myoblasts and CD56-negative cells (CD56-), the protocol described previously (Jaka et al., Expert Reviews in Molecular Medicine, 2017, 19, e2) was used, using immunomagnetic separation based on the early presence of the surface marker CD56 (Miltenyi Biotec, 130-050-401). Myoblasts were cultured in proliferation medium (DMEM, M-199, Insulin, Glutamine and penicillin-streptomycin) with 10% FBS and growth factors at 37° C. in 5% CO2 air incubator. When myoblasts reached confluence, the FBS concentration was reduced to 2% and growth factors were removed from the medium, promoting fusion and production of myotubes. Tideglusib was provided by Dr. Ana Martínez (from The Center for Biological Research, CSIC). It was administered at 1.2 μM, whereas LiCI (Sigma-Aldrich, L7026) was used for comparative purposes at a final concentration of 10 mM. Tideglusib and LiCI were administered at the above referred concentrations to myotubes at eight days of differentiation, and tideglusib also to skin fibroblasts and to CD56-cells. Negative controls, in the case of tideglusib, were performed with DMSO (Fisher Scientific, BP-231). At 48 hours after drug administration, RNA and proteins were extracted. Protein collection from muscle samples and cell cultures, as well as Western blot procedure, were performed as previously described (Jaka et al., Expert Reviews in Molecular Medicine, 2017, 19, e2).

GSK3β [1] = assay: Western blot of GSK3β and P-GSK3β (Ser9) in human primary myotubes; format: cell-based; settings: LGMDR1 patients' myotubes, day 8 of differentiation, 1.2 μM, 48 h
Procedure: To isolate the pure population of myoblasts and CD56-negative cells (CD56-), the protocol described previously (Jaka et al., Expert Reviews in Molecular Medicine, 2017, 19, e2) was used, using immunomagnetic separation based on the early presence of the surface marker CD56 (Miltenyi Biotec, 130-050-401). Myoblasts were cultured in proliferation medium (DMEM, M-199, Insulin, Glutamine and penicillin-streptomycin) with 10% FBS and growth factors at 37° C. in 5% CO2 air incubator. When myoblasts reached confluence, the FBS concentration was reduced to 2% and growth factors were removed from the medium, promoting fusion and production of myotubes. Tideglusib was provided by Dr. Ana Martínez (from The Center for Biological Research, CSIC). It was administered at 1.2 μM, whereas LiCI (Sigma-Aldrich, L7026) was used for comparative purposes at a final concentration of 10 mM. Tideglusib and LiCI were administered at the above referred concentrations to myotubes at eight days of differentiation, and tideglusib also to skin fibroblasts and to CD56-cells. Negative controls, in the case of tideglusib, were performed with DMSO (Fisher Scientific, BP-231). At 48 hours after drug administration, RNA and proteins were extracted. […]

β-catenin = assay: Western blot of total and active β-catenin in human primary myotubes (Wnt pathway activation); format: cell-based; settings: day 8 of differentiation, 48 h; for active β-catenin: tideglusib 1.2 μM, LiCl 10 mM
Procedure: as §1, §2, §3, §4

[2] = tested on: CAPN3, FOS, ANOS1 and ITGB1BP2 genes; assay: Quantitative real-time PCR of deregulated genes in LGMDR1 myotubes; format: cell-based, human; settings: 1.2 μM, 48 h
Procedure: Tideglusib was provided by Dr. Ana Martínez (from The Center for Biological Research, CSIC). It was administered at 1.2 μM, whereas LiCI (Sigma-Aldrich, L7026) was used for comparative purposes at a final concentration of 10 mM. Tideglusib and LiCI were administered at the above referred concentrations to myotubes at eight days of differentiation, and tideglusib also to skin fibroblasts and to CD56-cells. Negative controls, in the case of tideglusib, were performed with DMSO (Fisher Scientific, BP-231). At 48 hours after drug administration, RNA and proteins were extracted. RNA extraction from primary myoblast/myotubes was performed with an RNeasy Mini Kit (Qiagen). In the case of the muscle biopsies, which were snap frozen and stored at −80° C. until use, total RNA was obtained using an RNA-Plus Kit (QBiogene). The isolated RNA was reverse-transcribed to first-strand complementary DNA (cDNA) in a final volume of 50 μl using a High Capacity cDNA Reverse Transcription Kit (Applied Biosystems), according to the manufacturer's instructions. The expression levels of CAPN3, FOS, ITGB1BP2, ANOS1 and GAPDH genes in the samples were assessed by real-time quantitative PCR with TaqMan probes (Table Il below) using the ‘CFX384 Real-Time PCR Detection System’ (Bio-Rad).

integrin β1D and melusin = assay: Western blot of structural (costamere) proteins in human myotubes; format: cell-based; settings: 1.2 μM, 48 h
Procedure: as §5, with “Protein collection from muscle samples and cell cultures, as well as Western blot procedure, were performed as previously described (Jaka et al., Expert Reviews in Molecular Medicine, 2017, 19, e2).” left out

skin fibroblasts = assay: Western blot of Wnt and mTOR pathway proteins in skin fibroblasts; format: cell-based, human; settings: 1.2 μM, 48 h
Procedure: Skin fibroblasts from healthy controls and from LGMDR1 patients were provided by Dr. Ana Aiastui (Biodonostia Health Research Institute, Cell Culture and Histology Platform). Cells were cultured in Dulbecco's modified Eagle's medium (DMEM, Gibco, 41966-029) supplemented with 10% FBS (Gibco, 10270-106) and 1% penicillin-streptomycin (Gibco, 15140-122) at 37° C. in a 5% CO2 air incubator. Human fibroblasts were cultured at a density of 4×10^4 cells/ml. Tideglusib was provided by Dr. Ana Martínez (from The Center for Biological Research, CSIC). It was administered at 1.2 μM, whereas LiCI (Sigma-Aldrich, L7026) was used for comparative purposes at a final concentration of 10 mM. Tideglusib and LiCI were administered at the above referred concentrations to myotubes at eight days of differentiation, and tideglusib also to skin fibroblasts and to CD56-cells. Negative controls, in the case of tideglusib, were performed with DMSO (Fisher Scientific, BP-231). At 48 hours after drug administration, RNA and proteins were extracted. Protein collection from muscle samples and cell cultures, as well as Western blot procedure, were performed as previously described (Jaka et al., Expert Reviews in Molecular Medicine, 2017, 19, e2).

CD56-cells = assay: Western blot of Wnt and mTOR pathway proteins in CD56- cells from muscle; format: cell-based, human; settings: 1.2 μM, 48 h
From the text: as §5, with “130-050-401).” for “130-050-401). Myoblasts were cultured in proliferation medium (DMEM, M-199, Insulin, Glutamine and penicillin-streptomycin) with 10% FBS and growth factors at 37° C. in 5% CO2 air incubator. When myoblasts reached confluence, the FBS concentration was reduced to 2% and growth factors were removed from the medium, promoting fusion and production of myotubes.”

FRBZ gene, β1D integrin = settings: primary myotubes, LiCl treatment; cited from earlier work
GSK3 = settings: low therapeutic dose of lithium (0.5 mM); cited from earlier work
GSK3β [3] = settings: low dose of LiCl treatment; cited from earlier work
[4] = LGMDR1 patient's myotubes, 1.2 μM
[5] = myotubes of LGMDR1 patient 09-25

For O=c1sn(-c2cccc3ccccc23)c(=O)n1Cc1ccccc1 [Tideglusib, 4-benzyl2-naphthalen-1-yl-[1,2,4]thiadiazolidine-3,5-dione], the “expression of total p70S6K” value (p70S6K; [4]) was “increased”, the “phosphorylation of p70S6K (Thr389)” value (p70S6K; [4]) was “increased” and the “phosphorylation of p70S6K (Thr421/Ser424)” value (p70S6K; [4]) was “increased”. The “effect on p70S6K, its phosphorylation and P-RPS6” value (p70S6K; control myotubes, 1.2 μM) was “very slight”, the “P-p70S6K (T389), protein expression value relative to the same sample without treatment” value (p70S6K; [5]) was 1.8 and the “P-p70S6K (T421-S424), protein expression value relative to the same sample without treatment” value (p70S6K; [5]) was 1.8. The “P-p70S6K (T389), protein expression value relative to the same sample without treatment” value (p70S6K; myotubes of control 13-05) was 0.85, the “P-p70S6K (T421-S424), protein expression value relative to the same sample without treatment” value (p70S6K; myotubes of control 13-05) was 0.8 and the “phosphorylation of RPS6 (Ser235/Ser236)” value (RPS6; [4]) was “increased”. The “P-RPS6 (S235-S236), protein expression value relative to the same sample without treatment” value (RPS6; [5]) was 1.6, the “P-RPS6 (S235-S236), protein expression value relative to the same sample without treatment” value (RPS6; myotubes of control 13-05) was 0.8 and the “phosphorylation of mTOR (Ser2448)” value (mTOR) was “significant increase”. For the same molecule, the “phosphorylation of mTOR (Ser2481)” value (mTOR) was “significant increase”, the “total mTOR” value (mTOR) was “no significant changes” and the “amount of total GSK3β” value (GSK3β [1]) was “increases”. For the same molecule, the “phosphorylation of GSK3β (Ser9)” value (GSK3β [1]) was “increases”, the “total β-catenin expression” value (β-catenin; 1.2 μM) was “increase” and the “active β-catenin” value (β-catenin) was “increase”. The “expression of ANOS1 gene” value [2] was “increase”, the “expression of CAPN3 gene” value [2] was “increase” and the “expression of FOS gene” value [2] was “increase”. For the same molecule, the “expression of ITGB1BP2 gene” value [2] was “increase”, the “integrin β1D protein” value (integrin β1D and melusin) was “increase” and the melusin protein (integrin β1D and melusin) was “increase”. The “active form of β-catenin” value (skin fibroblasts) was “did not show an increase”, the “phosphorylation of GSK3β (Ser9)” value (skin fibroblasts) was “did not show an increase” and the “phosphorylation of RPS6” value (skin fibroblasts) was “decrease”. For the same molecule, the β-catenin (skin fibroblasts) was “did not show an increase”, the “active form of β-catenin” value (CD56-cells) was “no significant alteration” and the “amount of total β-catenin” value (CD56-cells) was “no significant alteration”. The mTOR (CD56-cells) was “no differences”, the “phosphorylation of RPS6” value (CD56-cells) was “no differences” and the “phosphorylation of p70S6K” value (CD56-cells) was “no differences”.
For [Cl-].[Li+] [LiCl], the “P-p70S6K (T421-S424), Western blot densitometry” value (p70S6K; LiCl 10 mM, myotubes of LGMDR1 patient 09-21, same sample without drug 0.3) was 0.5, the “P-p70S6K (T421-S424), Western blot densitometry” value (p70S6K; LiCl 10 mM, myotubes of LGMDR1 patient 09-24, same sample without drug 1.8) was 1.4 and the “P-p70S6K (T421-S424), Western blot densitometry” value (p70S6K; LiCl 10 mM, myotubes of LGMDR1 patient 09-25, same sample without drug 0.7) was 0.65. The “P-p70S6K (T421-S424), Western blot densitometry” value (p70S6K; LiCl 10 mM, myotubes of control 09-23, same sample without drug 0.8) was 0.78, the “P-p70S6K (T421-S424), Western blot densitometry” value (p70S6K; LiCl 10 mM, myotubes of control 13-07, same sample without drug 0.8) was 0.7 and the “proteins involved in the mTOR pathway and their phosphorylation forms (p70S6K, RPS6)” value (p70S6K; control and LGMDR1 patient's myotubes, LiCl 10 mM) was “did not provide any increase”. The “P-RPS6 (S235-S236), Western blot densitometry” value (RPS6; myotubes of LGMDR1 patient 09-21, same sample without drug 1.5) was 1.5, the “P-RPS6 (S235-S236), Western blot densitometry” value (RPS6; myotubes of LGMDR1 patient 09-24, same sample without drug 3.5) was 3 and the “P-RPS6 (S235-S236), Western blot densitometry” value (RPS6; myotubes of LGMDR1 patient 09-25, same sample without drug 2.8) was 2.5. For the same molecule, the “P-RPS6 (S235-S236), Western blot densitometry” value (RPS6; myotubes of control 09-23, same sample without drug 3.0) was 3.8, the “P-RPS6 (S235-S236), Western blot densitometry” value (RPS6; myotubes of control 13-07, same sample without drug 3) was 3 and the “active β-catenin” value (β-catenin) was “increase”. The “expression of the FRBZ gene” value (FRBZ gene, β1D integrin) was “lower levels”, the “β1D adult isoform of the integrin” value (FRBZ gene, β1D integrin) was “higher levels” and the GSK3 inhibition (GSK3) was “inhibit”. The myoblast fusion (GSK3) was “augment”, the GSK3β inhibition (GSK3β [3]) was “effective in inhibiting” and the “fatigue resistance in some muscles via NFAT activation” value (GSK3β [3]) was “enhances”.
